What was measured:
Set-up in all cases: species or system chicken
c- Src I77V (SH3 domain) = target: T1, c- Src I77V (SH3 domain) (Gallus gallus, UniProt P00523, I132V); assay: ITC binding of peptide RLP2 to c-Src SH3 I77V; conditions: 25 °C
T1 construct: The plasmid pET15b containing the chicken c-Src-SH3 domain gene; made in house
Experimental: (§1) Differential Scanning Calorimetry (DSC) was used to evaluate the effect of the mutation on the conformational equilibrium and stability of the protein. Isothermal Titration Calorimetry (ITC) measured the binding energetics of all mutants to the RLP2 ligand at 25°C. The results for the 15 mutants studied are summarized in Figs 1D, S1 and S2, as well as S3 and S4 Tables.
(§2) The plasmid pET15b containing the chicken c-Src-SH3 domain gene was a generous gift from Dr. E. Freire (Johns Hopkins University). The genes encoding for the c-Src-SH3 mutants were obtained by site directed mutagenesis using the QuickChange Site-Directed-Mutagenesis Kit (Stratagene) taking the WT c-Src-SH3 plasmid as template or purchased from Top Gene Technologies, Canada. WT and mutants of c-Src-SH3 domain were expressed and purified as previously described for the wild type protein [68]. The peptide RLP2 (Ac-RALPPLPRY-NH2) was bought from Peptide 2.0 (Piscataway, USA) and JPT (Berlin, Germany) with a purity > 95%. Protein concentration was determined by absorbance at 280 nm using an extinction coefficient of 16500 M^-1·cm^-1. Peptide concentration was determined by absorbance at 274 nm using an extinction coefficient of 1400 M^-1·cm^-1.
(§3) Isothermal titration calorimetry was performed using a high-precision VP titration calorimetric system (Microcal Inc., Northampton, MA) as previously described. […] Titrations were made using a profile of injection volumes from 3 μL to 20 μL to define the titration curve more clearly. The heat produced by the binding reaction between the Src-SH3 domain and the peptide ligand was calculated as the difference between the heat of reaction and the corresponding heat of dilution, as obtained from independent titrations of the peptide ligand into the buffer. The resulting binding isotherms were analyzed by non-linear least-square fittings of the experimental data to a model corresponding to a single set of identical sites, as described before.
(§4) Supplementary file pcbi.1004938.s008.doc: S3 Table Analysis of Src SH3 binding affinities through ITC. Thermodynamic binding affinity to peptide RLP2. A * indicates experiment made by fluorescence titration only. (DOC) Click here for additional data file.

c-Src R73K (SH3 domain) = target: T2, c-Src R73K (SH3 domain) (Gallus gallus, UniProt P00523, Q128K); assay: ITC binding of peptide RLP2 to c-Src SH3 R73K; conditions: 25 °C
T2 construct: The plasmid pET15b containing the chicken c-Src-SH3 domain gene; made in house
Experimental: as §1, §2, §3, §4

c-Src L40V (SH3 domain) = assay: ITC binding of peptide RLP2 to c-Src SH3 L40V; conditions: 25 °C
Experimental: as §1, §2, §3, §4

c-Src N45S (SH3 domain) = target: T3, c-Src N45S (SH3 domain) (Gallus gallus, UniProt P00523, N113S); assay: ITC binding of peptide RLP2 to c-Src SH3 N45S; conditions: 25 °C
T3 construct: The plasmid pET15b containing the chicken c-Src-SH3 domain gene; made in house
Experimental: as §1, §2, §3, §4

c- Src W56L (SH3 domain) = target: T4, c- Src W56L (SH3 domain) (Gallus gallus, UniProt P00523, Q128R/W119L); assay: ITC binding of peptide RLP2 to c-Src SH3 W56L; conditions: 25 °C
T4 construct: The plasmid pET15b containing the chicken c-Src-SH3 domain gene; made in house
Experimental: as §1, §2, §3, §4

c-Src R73E (SH3 domain) = target: T5, c-Src R73E (SH3 domain) (Gallus gallus, UniProt P00523, Q128E); assay: ITC binding of peptide RLP2 to c-Src SH3 R73E; conditions: 25 °C
T5 construct: The plasmid pET15b containing the chicken c-Src-SH3 domain gene; made in house
Experimental: as §1, §2, §3, §4

c- Src R73Q (SH3 domain) = target: T6, c- Src R73Q (SH3 domain) (Gallus gallus, UniProt P00523); assay: ITC binding of peptide RLP2 to c-Src SH3 R73Q; conditions: 25 °C
T6 construct: The plasmid pET15b containing the chicken c-Src-SH3 domain gene; made in house
Experimental: as §1, §2, §3, §4

c-Src L32V (SH3 domain) = target: T7, c-Src L32V (SH3 domain) (Gallus gallus, UniProt P00523, L100V/Q128R); assay: Fluorescence titration binding of peptide RLP2 to c-Src SH3 L32V; conditions: fluorescence titration only, 25 °C
T7 construct: The plasmid pET15b containing the chicken c-Src-SH3 domain gene; made in house
Excerpt: as §2, §4

[1] = binding of RLP2, R73K relative to wt
[2] = binding of RLP2, L40V relative to wt
[3] = binding of RLP2, N45S relative to wt
[4] = binding of RLP2, W56L relative to wt
[5] = binding of RLP2, R73E relative to wt
[6] = binding of RLP2, R73Q relative to wt

Ac-RALPPLPRY-NH2 [RLP2, Ac-RALPPLPRY-NH2]
∆∆Hb (25 ºC) (c- Src I77V (SH3 domain); binding of RLP2, I77V relative to wt): 0.5 ± 0.2 kcal/mol
∆Hb (25 ºC) (c- Src I77V (SH3 domain); ITC, binding of RLP2, I77V): -13.7 ± 0.1 kcal/mol
Kd (c- Src I77V (SH3 domain); ITC, RLP2 about 2 mM titrated into SH3 (50-122 μM), I77V, read-out: Kd (25 ºC)): 15.5 ± 0.3 µM
∆∆Gb (25 ºC) (c-Src R73K (SH3 domain); [1]): -0.12 ± 0.04 kcal/mol
∆∆Hb (25 ºC) (c-Src R73K (SH3 domain); [1]): 0.3 ± 0.2 kcal/mol
∆Gb (25 ºC) (c-Src R73K (SH3 domain); ITC, binding of RLP2, R73K): -6.75 ± 0.02 kcal/mol
∆Hb (25 ºC) (c-Src R73K (SH3 domain); ITC, binding of RLP2, R73K): -13.9 ± 0.1 kcal/mol
Kd (c-Src R73K (SH3 domain); ITC, RLP2 about 2 mM titrated into SH3 (50-122 μM), R73K (control), read-out: Kd (25 ºC)): 11.3 ± 0.4 µM
∆∆Gb (25 ºC) (c-Src L40V (SH3 domain); [2]): 0.24 ± 0.04 kcal/mol
∆∆Hb (25 ºC) (c-Src L40V (SH3 domain); [2]): -0.6 ± 0.3 kcal/mol
∆Gb (25 ºC) (c-Src L40V (SH3 domain); ITC, binding of RLP2, L40V): -6.39 ± 0.02 kcal/mol
∆Hb (25 ºC) (c-Src L40V (SH3 domain); ITC, binding of RLP2, L40V): -14.8 ± 0.2 kcal/mol
Kd (c-Src L40V (SH3 domain); ITC, RLP2 about 2 mM titrated into SH3 (50-122 μM), L40V, read-out: Kd (25 ºC)): 20.5 ± 0.6 µM
∆∆Gb (25 ºC) (c-Src N45S (SH3 domain); [3]): 0.19 ± 0.04 kcal/mol
∆∆Hb (25 ºC) (c-Src N45S (SH3 domain); [3]): 0.1 ± 0.3 kcal/mol
∆Gb (25 ºC) (c-Src N45S (SH3 domain); ITC, binding of RLP2, N45S): -6.44 ± 0.02 kcal/mol
∆Hb (25 ºC) (c-Src N45S (SH3 domain); ITC, binding of RLP2, N45S): -14.1 ± 0.2 kcal/mol
Kd (c-Src N45S (SH3 domain); ITC, RLP2 about 2 mM titrated into SH3 (50-122 μM), N45S, read-out: Kd (25 ºC)): 19 ± 0.6 µM
∆∆Gb (25 ºC) (c- Src W56L (SH3 domain); [4]): 0.98 ± 0.03 kcal/mol
∆∆Hb (25 ºC) (c- Src W56L (SH3 domain); [4]): 2.4 ± 0.2 kcal/mol
∆Gb (25 ºC) (c- Src W56L (SH3 domain); ITC, binding of RLP2, W56L): -5.65 ± 0.01 kcal/mol
∆Hb (25 ºC) (c- Src W56L (SH3 domain); ITC, binding of RLP2, W56L): -11.8 ± 0.1 kcal/mol
Kd (c- Src W56L (SH3 domain); ITC, RLP2 about 2 mM titrated into SH3 (50-122 μM), W56L, read-out: Kd (25 ºC)): 72.5 ± 1.4 µM
∆∆Gb (25 ºC) (c-Src R73E (SH3 domain); [5]): -0.24 ± 0.04 kcal/mol
∆∆Hb (25 ºC) (c-Src R73E (SH3 domain); [5]): -0.1 ± 0.3 kcal/mol
∆Gb (25 ºC) (c-Src R73E (SH3 domain); ITC, binding of RLP2, R73E): -6.87 ± 0.03 kcal/mol
∆Hb (25 ºC) (c-Src R73E (SH3 domain); ITC, binding of RLP2, R73E): -14.3 ± 0.2 kcal/mol
Kd (c-Src R73E (SH3 domain); ITC, RLP2 about 2 mM titrated into SH3 (50-122 μM), R73E (control), read-out: Kd (25 ºC)): 9.3 ± 0.5 µM
∆∆Gb (25 ºC) (c- Src R73Q (SH3 domain); [6]): -0.11 ± 0.04 kcal/mol
∆∆Hb (25 ºC) (c- Src R73Q (SH3 domain); [6]): -0.4 ± 0.2 kcal/mol
∆Gb (25 ºC) (c- Src R73Q (SH3 domain); ITC, binding of RLP2, R73Q): -6.74 ± 0.02 kcal/mol
∆Hb (25 ºC) (c- Src R73Q (SH3 domain); ITC, binding of RLP2, R73Q): -14.6 ± 0.1 kcal/mol
Kd (c- Src R73Q (SH3 domain); ITC, RLP2 about 2 mM titrated into SH3 (50-122 μM), R73Q (control), read-out: Kd (25 ºC)): 11.4 ± 0.3 µM
∆∆Gb (25 ºC) (c-Src L32V (SH3 domain); L32V relative to wt): 1.76 ± 0.07 kcal/mol
∆Gb (25 ºC) (c-Src L32V (SH3 domain); binding of RLP2, L32V): -4.87 ± 0.06 kcal/mol
Kd (c-Src L32V (SH3 domain); L32V, read-out: Kd (25 ºC)): 269 ± 29 µM

— article PMC4877006, “From Binding-Induced Dynamic Effects in SH3 Structures to Evolutionary Conserved Sectors” (PLoS Computational Biology, 2016)
